According to patent US6632829B2, “Sulfonamides and derivatives thereof that modulate the activity of endothelin” (Texas Biotechnology Corp., priority 1996, dated 2003):
“And” between values parts separate entries of the source, which are not always exact repeats. Identical values can stand only once.

How the values were obtained:
human ETB receptor = target: T1, human ETB receptor (Homo sapiens, UniProt P24530); experiment: Endothelin binding inhibition, Binding Test #2: competition with 125I-ET-1 for ETB receptors on transfected COS7 cell membranes; details: for inhibition at 100 µM: read-out: ETB % inhibition @ 100 μM, @ 100 μM, incubation at 24° C.
T1 construct: expressed in transfected cells; host or cells: COS7 cells
T1 sequence (P24530 27-442): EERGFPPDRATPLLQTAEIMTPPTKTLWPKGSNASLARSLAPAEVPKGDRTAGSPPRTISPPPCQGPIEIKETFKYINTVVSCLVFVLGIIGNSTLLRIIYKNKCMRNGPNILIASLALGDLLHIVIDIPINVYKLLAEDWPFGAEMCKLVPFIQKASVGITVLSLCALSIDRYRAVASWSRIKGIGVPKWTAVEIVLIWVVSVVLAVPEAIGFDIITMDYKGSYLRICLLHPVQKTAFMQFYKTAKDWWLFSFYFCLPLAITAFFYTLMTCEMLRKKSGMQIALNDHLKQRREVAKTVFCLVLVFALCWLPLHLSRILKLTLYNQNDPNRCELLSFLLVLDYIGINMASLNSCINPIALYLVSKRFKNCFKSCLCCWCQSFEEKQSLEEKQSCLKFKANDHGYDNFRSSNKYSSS
Summary of the method: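 Membranes from COS7 cells transfected with human ETB receptor, prepared in HEPES pH 7.4 with aprotinin, MnCl2/DNase treatment at 37° C for 30 min. Test compounds compete with 125I-labeled ET-1 for receptor binding; membrane used at 1 μg/50 μL binding buffer.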

human ETA receptors = target: T2, human ETA receptors (Homo sapiens, UniProt P25101); experiment: Endothelin binding inhibition, Binding Test #1: competition with 125I-ET-1 for ETA receptors on TE 671 cell membranes
T2 construct: endogenous in cells; host or cells: TE 671 cells (ATCC HTB 139), membrane preparation
T2 sequence (P25101 21-427): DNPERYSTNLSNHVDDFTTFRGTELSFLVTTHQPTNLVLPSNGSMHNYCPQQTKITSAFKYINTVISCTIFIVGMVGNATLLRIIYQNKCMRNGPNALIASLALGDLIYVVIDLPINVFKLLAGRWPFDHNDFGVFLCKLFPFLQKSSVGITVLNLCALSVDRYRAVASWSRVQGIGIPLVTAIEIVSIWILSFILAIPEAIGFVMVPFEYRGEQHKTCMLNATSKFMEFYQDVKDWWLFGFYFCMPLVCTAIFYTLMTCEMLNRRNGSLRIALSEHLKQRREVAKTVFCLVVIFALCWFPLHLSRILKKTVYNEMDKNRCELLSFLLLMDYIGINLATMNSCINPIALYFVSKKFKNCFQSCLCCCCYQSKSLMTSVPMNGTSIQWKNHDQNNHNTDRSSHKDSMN

[1] = incubation at 24° C. (values marked †)
[2] = incubation at 4° C. (values without †)

| IC50 (human ETB receptor; [1]) [µM] | IC50 (human ETA receptors; [1]) | IC50 (human ETB receptor; [2]) [µM] | IC50 (human ETA receptors; [2]) [µM] | inhibition at 100 µM (human ETB receptor) [%] | Compound |
| --- | --- | --- | --- | --- | --- |
| 7.4 | 0.0065 µM |  |  |  | Cc1noc(NS(=O)(=O)c2ccsc2C(=O)Oc2ccc3c(c2)OCO3)c1Cl [N-(4-chloro-3-methyl-5-isoxazolyl)-2-[3,4-(methylenedioxy)phenoxycarbonyl]thiophene-3-sulfonamide] |
| 1.23 | 0.0417 µM |  |  |  | Cc1cc(C)c(CCc2sccc2S(=O)(=O)Nc2onc(C)c2Br)c(C)c1 [N-(4-bromo-3-methyl-5-isoxazolyl)-2-(2,4,6-trimethylphenethyl)thiophene-3-sulfonamide] |
| 1.86 | 0.049 µM |  |  |  | Cc1cc(C)c(C=CCc2ccsc2S(=O)(=O)Nc2onc(C)c2Br)c(C)c1 [N-(4-bromo-3-methyl-5-isoxazolyl)-3-(2,4,6-trimethylcinnamyl)thiophene-2-sulfonamide] |
| 3.69 | 0.000625 µM |  |  |  | Cc1cc2c(cc1CC(=O)c1sccc1S(=O)(=O)Nc1noc(C)c1Cl)OCO2 [N-(4-chloro-5-methyl-3-isoxazolyl)-2-[2-methyl-4,5-(methylenedioxy)phenylacetyl]thiophene-3-sulfonamide] |
| 29.5 | 0.0159 µM |  |  |  | Cc1cc(C)c(NC(=O)c2sccc2S(=O)(=O)Nc2onc(C)c2Cl)c(-c2ccccc2)c1 [N-(4-chloro-3-methyl-5-isoxazolyl)-2-(2-phenyl-4,6-dimethylphenylaminocarbonyl)thiophene-3-sulfonamide] |
| 0.25 | 15.8 µM | 0.359 | 7.1 |  | Cc1ccc(-c2ccc(S(=O)(=O)Nc3noc(C)c3Br)s2)cc1 [N-(4-bromo-5-methyl-3-isoxazolyl)-5-(4-methylphenyl)thiophene-2-sulfonamide] |
|  | 0.274 µM |  |  | 21 | Cc1ccc(OC(=O)c2sccc2S(=O)(=O)Nc2onc(C)c2C)c(C)c1 [N-(3,4-dimethyl-5-isoxazolyl)-2-[(2,4-dimethylphenoxy)carbonyl]thiophene-3-sulfonamide] |
| 4.68 | 0.0457 µM |  |  |  | Cc1cc(C)c(OCc2ccsc2S(=O)(=O)Nc2onc(C)c2Br)c(C)c1 [N-(4-bromo-3-methyl-5-isoxazolyl)-3-[(2,4,6-trimethylphenoxy)methyl]thiophene-2-sulfonamide] |
| 18 | 0.007 µM |  |  |  | Cc1ccc(C)c(CC(=O)c2sccc2S(=O)(=O)Nc2onc(C)c2Cl)c1 [N-(4-chloro-3-methyl-5-isoxazolyl)-2-(2,5-dimethylphenylacetyl)thiophene-3-sulfonamide] |
| 27 | 2.1 µM |  |  |  | Cc1noc(NS(=O)(=O)c2ccsc2C(=O)C(C#N)c2ccc3c(c2)OCO3)c1Cl (centres unmarked) [N-(4-chloro-3-methyl-5-isoxazolyl)-2-{1-cyano-1-[(3,4-methylenedioxy)phenyl]acetyl}thiophene-3-sulfonamide] |
| 111 | 1.73 µM |  |  |  | COc1ccc(OC(=O)c2sccc2S(=O)(=O)Nc2onc(C)c2Br)cc1 [N-(4-bromo-3-methyl-5-isoxazolyl)-2-[(4-methoxylphenoxy)carbonyl]thiophene-3-sulfonamide] |
| 3.9 | 0.97 µM |  |  |  | Cc1noc(NS(=O)(=O)c2ccsc2C(=O)NS(=O)(=O)c2cccc3c(N(C)C)cccc23)c1Br [N-(4-bromo-3-methyl-5-isoxazolyl)-2-[(5-dimethylamino-1-naphthyl)sulfonylaminocarbonyl]thiophene-3-sulfonamide] |
|  |  | 9.37 | 0.337 |  | Cc1noc(NS(=O)(=O)c2ccsc2C(O)c2ccccc2)c1Br (stereo not drawn) [N-(4-bromo-3-methyl-5-isoxazolyl)-2-(α-hydroxybenzyl)thiophene-3-sulfonamide] |
| 40.1 | 0.106 µM |  |  |  | Cc1ccc(CCc2sccc2S(=O)(=O)Nc2onc(C)c2Br)cc1 [N-(4-bromo-3-methyl-5-isoxazolyl)-2-[(4-methyl)phenethyl]thiophene-3-sulfonamide] |
| 81.3 | 0.066 µM |  |  |  | Cc1noc(NS(=O)(=O)c2ccsc2C(=O)Nc2ccc(O)nn2)c1Br [N-(4-bromo-3-methyl-5-isoxazolyl)-2-[(3-hydroxyl-6-pyridazinyl)aminocarbonyl]thiophene-3-sulfonamide] |
| 3.63 | 0.0468 µM |  |  |  | CCCc1ccc(-c2ccsc2S(=O)(=O)Nc2onc(C)c2Br)c(C)c1 [N-(4-bromo-3-methyl-5-isoxazolyl)-3-(2-methyl-4-propylphenyl)thiophene-2-sulfonamide] |

| IC50 (human ETB receptor; [1]) [µM] | IC50 (human ETA receptors; [1]) | IC50 (human ETB receptor; [2]) [µM] | IC50 (human ETA receptors; [2]) [µM] | inhibition at 100 µM (human ETB receptor) [%] | Compound |
| --- | --- | --- | --- | --- | --- |
| 0.364 | 0.0055 µM |  |  |  | Cc1onc(NS(=O)(=O)c2c(Cc3ccc4c(c3)OCO4)sc3ccccc23)c1Cl [N-(4-chloro-5-methyl-3-isoxazolyl)-2-[3,4-(methylenedioxy)benzyl]benzo[b]thiophene-3-sulfonamide] |
| 0.407 | 0.107 µM |  |  |  | CCCc1cc2c(cc1OCc1sccc1S(=O)(=O)Nc1onc(C)c1Br)OCO2 [N-(4-bromo-3-methyl-5-isoxazolyl)-2-{[4,5-(methylenedioxy)-2-propylphenoxy]methyl}thiophene-3-sulfonamide] |
| 55.1 | 0.324 µM and 0.302 µM |  |  | 31 | Cc1ccccc1-c1ccsc1S(=O)(=O)Nc1onc(C)c1Br [N-(4-bromo-3-methyl-5-isoxazolyl)-3-(2-tolyl)thiophene-2-sulfonamide] |
|  | 1.55 µM | 44.1 | 0.16 |  | Cc1noc(NS(=O)(=O)c2ccsc2CO)c1Br [N-(4-bromo-3-methyl-5-isoxazolyl)-2-(hydroxymethyl)thiophene-3-sulfonamide] |
| 3.31 | 0.155 µM |  |  |  | Cc1noc(NS(=O)(=O)c2sccc2-c2ccc(CCC(C)C)cc2)c1Br [N-(4-bromo-3-methyl-5-isoxazolyl)-3-(4-iso-pentylphenyl)thiophene-2-sulfonamide] |
| 61 | 0.011 µM |  |  |  | COc1cc(NC(=O)c2sccc2S(=O)(=O)Nc2onc(C)c2Cl)c(C(N)=O)cc1OC [N-(4-chloro-3-methyl-5-isoxazolyl)-2-(2-carboxamido-4,5-dimethoxyphenylaminocarbonyl)thiophene-3-sulfonamide] |
| 16.5 | 0.000321 µM and 0.00092 µM |  |  |  | COC(=O)c1c(C)cc(C)c(NC(=O)c2sccc2S(=O)(=O)Nc2onc(C)c2Cl)c1C [N-(4-chloro-3-methyl-5-isoxazolyl)-2-(3-methoxycarbonyl-2,4,6-trimethylphenylaminocarbonyl)thiophene-3-sulfonamide] |
| 9.55 | 0.00066 µM |  |  |  | 3-[N-(Benzo-2,1,3-thiadiazol-5-yl)aminosulfonyl]thiophene-2-carboxylic acid, 3-cyanomethyl-2,4,6-trimethylanilide |
| 15 | 1.2 µM |  |  |  | Cc1ccc(OCc2sccc2S(=O)(=O)Nc2onc(C)c2Br)cc1 [N-(4-bromo-3-methyl-5-isoxazolyl)-2-[(4-methylphenoxy)methyl]thiophene-3-sulfonamide] |
| 6.11 |  |  | 0.16 |  | CCCCc1ccc(-c2ccsc2S(=O)(=O)Nc2onc(C)c2Br)cc1 [N-(4-bromo-3-methyl-5-isoxazolyl)-3-(4-butylphenyl)thiophene-2-sulfonamide] |
| 3.39 | 0.0562 µM |  |  |  | Cc1cc(C)c(OCc2sccc2S(=O)(=O)Nc2onc(C)c2Br)c(C)c1 [N-(4-bromo-3-methyl-5-isoxazolyl)-2-[(2,4,6-trimethylphenoxy)methyl]thiophene-3-sulfonamide] |
| 9.4 | 0.347 µM |  |  |  | Cc1ccc(CCc2ccsc2S(=O)(=O)Nc2onc(C)c2Br)cc1 [N-(4-bromo-3-methyl-5-isoxazolyl)-3-(4-methylphenethyl)thiophene-2-sulfonamide] |
| 43.9 |  |  | 0.184 |  | CCc1ccc(-c2ccsc2S(=O)(=O)Nc2onc(C)c2Br)cc1 [N-(4-bromo-3-methyl-5-isoxazolyl)-3-(4-ethylphenyl)thiophene-2-sulfonamide] |
| ~1.5 | ~0.2 µM |  |  |  | CCCc1cc2c(cc1OCc1ccsc1S(=O)(=O)Nc1onc(C)c1Br)OCO2 [N-(4-bromo-3-methyl-5-isoxazolyl)-3-{[2-propyl-4,5-(methylenedioxy)phenoxy]methyl}thiophene-2-sulfonamide] |
| 4.3 | 0.101 µM |  |  |  | Cc1ccc(CCc2ccsc2S(=O)(=O)Nc2onc(C)c2Br)c(C)c1 [N-(4-bromo-3-methyl-5-isoxazolyl)-3-(2,4-dimethylphenethyl)thiophene-2-sulfonamide] |

| Compound | IC50 (human ETB receptor; [1]) [µM] | IC50 (human ETA receptors; [1]) | IC50 (human ETB receptor; [2]) [µM] | IC50 (human ETA receptors; [2]) [µM] | inhibition at 100 µM (human ETB receptor) [%] |
| --- | --- | --- | --- | --- | --- |
| CC(=O)OCc1c(C)cc(C)c(NC(=O)c2sccc2S(=O)(=O)Nc2noc(C)c2Cl)c1C [N-(4-chloro-5-methyl-3-isoxazolyl)-2-(3-acetoxymethyl-2,4,6-trimethylphenylaminocarbonyl)thiophene-3-sulfonamide] | 19.7 | 0.00051 µM |  |  |  |
